Measurements as given in patent US10385057B2, “Pyrazole compounds and methods of making and using same” (Lundbeck La Jolla Research Center, Inc., priority 2015, dated 2019).

Key:
FAAH = target: T1, FAAH (Mus musculus, UniProt O08914); experiment: In vitro competitive activity-based protein profiling, mouse FAAH; format: biochemical; details: for inhibition at 1 µM: read-out: FAAH % inh. 1 μM (mouse); for inhibition at 10 µM: read-out: FAAH % inh. at 10 μM (mouse)
T1 construct: mouse brain membrane fraction or cell lysates for mouse assays; from tissue
T1 sequence (O08914 1-579): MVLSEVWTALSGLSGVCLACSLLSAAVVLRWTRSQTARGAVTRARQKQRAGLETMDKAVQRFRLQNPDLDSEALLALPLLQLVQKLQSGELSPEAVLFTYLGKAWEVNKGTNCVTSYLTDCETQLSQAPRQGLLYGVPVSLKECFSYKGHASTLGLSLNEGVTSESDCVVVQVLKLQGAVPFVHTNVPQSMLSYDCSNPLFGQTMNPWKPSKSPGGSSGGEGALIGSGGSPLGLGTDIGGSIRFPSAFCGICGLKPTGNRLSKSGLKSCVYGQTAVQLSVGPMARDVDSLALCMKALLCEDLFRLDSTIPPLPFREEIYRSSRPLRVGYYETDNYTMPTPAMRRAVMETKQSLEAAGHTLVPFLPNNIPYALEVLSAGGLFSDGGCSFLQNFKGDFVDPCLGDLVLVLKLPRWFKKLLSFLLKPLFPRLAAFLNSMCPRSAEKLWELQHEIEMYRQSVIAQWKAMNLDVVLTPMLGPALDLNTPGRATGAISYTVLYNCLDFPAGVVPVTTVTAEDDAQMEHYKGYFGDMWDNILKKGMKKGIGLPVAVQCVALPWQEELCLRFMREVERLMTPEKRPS
Summary of the method: (§1)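 Mouse brain membranes or cell lysates (mouse) and human prefrontal cortex or cell membrane fractions (human), 1.0 mg/mL protein, preincubated with inhibitor 30 min at 37 °C, then FP-Rh or HT-01 probe 30 min at 37 °C. SDS-PAGE; MAGL and FAAH activity from in-gel fluorescence band intensity.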

MAGL = target: T2, MAGL (Mus musculus, UniProt O35678); experiment: In vitro competitive activity-based protein profiling, mouse MAGL; format: biochemical; details: for inhibition at 1 µM: read-out: MAGL % inh. 1 μM (mouse); for inhibition at 10 µM: read-out: MAGL % inh. at 10 μM (mouse)
T2 construct: mouse brain membrane fraction or cell lysates for mouse assays; from tissue
T2 sequence (O35678 1-303): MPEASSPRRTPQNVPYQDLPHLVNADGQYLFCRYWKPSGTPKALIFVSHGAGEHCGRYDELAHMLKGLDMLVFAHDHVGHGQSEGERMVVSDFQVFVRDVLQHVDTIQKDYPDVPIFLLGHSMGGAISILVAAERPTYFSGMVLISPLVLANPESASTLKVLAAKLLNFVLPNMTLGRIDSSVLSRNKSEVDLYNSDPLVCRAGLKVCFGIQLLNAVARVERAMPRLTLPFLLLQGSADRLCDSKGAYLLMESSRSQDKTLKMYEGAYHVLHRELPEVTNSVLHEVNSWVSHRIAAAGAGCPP
Summary of the method: as §1

Structure (SMILES)	inhibition at 1 µM (FAAH; 1 μM)	inhibition at 10 µM (FAAH)	inhibition at 1 µM (MAGL; 1 μM)	inhibition at 10 µM (MAGL)	IC50 (FAAH)	IC50 (MAGL)	FAAH % inh. 1 μM (mouse) (FAAH; 1 μM)	MAGL % inh. 1 μM (mouse) (MAGL; 1 μM)
O=C(N1CCC2(CCN(Cc3cccc(Cl)c3)C2)C1)n1cc(C(F)(F)F)cn1 (stereo not shown) [Example 168, (7-(3-chlorobenzyl)-2,7-diazaspiro[4.4]nonan-2-yl)(4-(trifluoromethyl)-1H-pyrazol-1-yl)methanone]	≥ 75%		≥ 75%		≤ 0.1 µM	≤ 0.1 µM		
O=C(N1CCC2(CCN(Cc3ccc(N4CCOCC4)cc3Cl)C2)C1)n1cc(Cl)cn1 (stereo not shown) [Example 137, (4-chloro-1H-pyrazol-1-yl)(7-(2-chloro-4-morpholinobenzyl)-2,7-diazaspiro[4.4]nonan-2-yl)methanone]	≥ 75%		≥ 75%		≤ 0.1 µM	≤ 0.1 µM		
O=C(N1CC2CN(Cc3cccc(Cl)c3)CC2C1)n1cc(Cl)cn1 (stereo not shown) [Example 117, (4-chloro-1H-pyrazol-1-yl)(5-(3-chlorobenzyl)hexahydropyrrolo[3,4-c]pyrrol-2(1H)-yl)methanone]	≥ 75%		≥ 75%		≤ 0.1 µM	≤ 0.1 µM		
NC(=O)c1cnn(C(=O)N2CCC3(CCN(Cc4ccc(Cl)cc4)C3)C2)c1 (stereo not shown) [Example 37, 1-(7-(4-chlorobenzyl)-2,7-diazaspiro[4.4]nonane-2-carbonyl)-1H-pyrazole-4-carboxamide]	≥ 75%		50 to 75%		≤ 0.1 µM	1 to 10 µM		
O=C(c1cnn(C(=O)N2CCC3(CCN(Cc4cc(Cl)cc(C(F)(F)F)c4)C3)C2)c1)N1CCCC1 (stereo not shown) [Example 34, (1-(7-(3-chloro-5-(trifluoromethyl)benzyl)-2,7-diazaspiro[4.4]nonane-2-carbonyl)-1H-pyrazol-4-yl)(pyrrolidin-1-yl)methanone]	≥ 75%		≥ 75%					
O=C(N1CC2CN(Cc3cccc(Cl)c3)CC2C1)n1cc(C(F)(F)F)cn1 (stereo not shown) [Example 149, (5-(3-chlorobenzyl)hexahydropyrrolo[3,4-c]pyrrol-2(1H)-yl)(4-(trifluoromethyl)-1H-pyrazol-1-yl)methanone]	≥ 75%		≥ 75%		≤ 0.1 µM	0.1 to 1 µM		
O=C(N1CCC2(CCN(Cc3ccc(N4CCOCC4)cc3)C2)C1)n1cc(Cl)cn1 (stereo not shown) [Example 136, (4-chloro-1H-pyrazol-1-yl)(7-(4-morpholinobenzyl)-2,7-diazaspiro[4.4]nonan-2-yl)methanone]	≥ 75%		≥ 75%		0.1 to 1 µM	0.1 to 1 µM		
O=C(c1cnn(C(=O)N2CCC3(CCN(Cc4cc(Cl)ccc4Cl)C3)C2)c1)N1CCOCC1 (stereo not shown) [Example 29, (1-(7-(2,5-dichlorobenzyl)-2,7-diazaspiro[4.4]nonane-2-carbonyl)-1H-pyrazol-4-yl)(morpholino)methanone]	≥ 75%	100%	0 to 25%	100%				
O=C(N1CCC2(CCN(Cc3cccc(Cl)c3)C2)C1)n1cc(Cl)cn1 (single isomer, unassigned) [Example 133, (4-chloro-1H-pyrazole-1-carbonyl)-7-[(3-chlorophenyl)methyl]-2,7-diazaspiro[4.4]nonane]					≤ 0.1 µM	0.1 to 1 µM		
NC(=O)c1cnn(C(=O)N2CC3CN(Cc4cc(Cl)cc(C(F)(F)F)c4)CC3C2)c1 (stereo not shown) [Example 25, 1-(5-(3-chloro-5-(trifluoromethyl)benzyl)octahydropyrrolo[3,4-c]pyrrole-2-carbonyl)-1H-pyrazole-4-carboxamide]	≥ 75%		≥ 75%		≤ 0.1 µM	≤ 0.1 µM		
NC(=O)c1cnn(C(=O)N2CCC3(CCN(Cc4ccc(N5CCCC5)cc4C(F)(F)F)C3)C2)c1 (stereo not shown) [Example 203, 1-(7-(4-(pyrrolidin-1-yl)-2-(trifluoromethyl)benzyl)-2,7-diazaspiro[4.4]nonane-2-carbonyl)-1H-pyrazole-4-carboxamide]	≥ 75%		≥ 75%					
CC1COCCN1c1cc(F)ccc1CN1CC2CN(C(=O)n3cc(Cl)cn3)CC2C1 (stereo not shown) [Example 104, (4-chloro-1H-pyrazol-1-yl)(5-(4-fluoro-2-(3-methylmorpholino)benzyl)hexahydropyrrolo[3,4-c]pyrrol-2(1H)-yl)methanone]	≥ 75%		≥ 75%					
Cc1ccccc1CN1CC2CN(C(=O)n3cc(C(F)(F)F)cn3)CC2C1 (stereo not shown) [Example 153, (5-(2-methylbenzyl)hexahydropyrrolo[3,4-c]pyrrol-2(1H)-yl)(4-(trifluoromethyl)-1H-pyrazol-1-yl)methanone]	≥ 75%		≥ 75%		≤ 0.1 µM	≤ 0.1 µM		
CNC(=O)c1cnn(C(=O)N2C[C@H]3C[C@@H](N(C)Cc4ccccc4Cl)C[C@H]3C2)c1 [Example 84, 1-(cis-5-((2-chlorobenzyl)(methyl)amino)octahydrocyclopenta[c]pyrrole-2-carbonyl)-N-methyl-1H-pyrazole-4-carboxamide]							A (% inhibition greater than or equal to 75%)	A (% inhibition greater than or equal to 75%)
NC(=O)c1cnn(C(=O)N2CC3CN(Cc4ccc(N5CCOCC5)cc4C(F)(F)F)CC3C2)c1 (stereo not shown) [Example 2, 1-(5-(4-morpholino-2-(trifluoromethyl)benzyl)octahydropyrrolo[3,4-c]pyrrole-2-carbonyl)-1H-pyrazole-4-carboxamide]	≥ 75%		≥ 75%		≤ 0.1 µM	≤ 0.1 µM		

Further lines, with some results ahead:

inhibition at 1 µM (FAAH; 1 μM)	inhibition at 10 µM (FAAH)	inhibition at 1 µM (MAGL; 1 μM)	inhibition at 10 µM (MAGL)	IC50 (FAAH)	IC50 (MAGL)	Structure (SMILES)	FAAH % inh. 1 μM (mouse) (FAAH; 1 μM)	MAGL % inh. 1 μM (mouse) (MAGL; 1 μM)
≥ 75%	100%	0 to 25%	50%			O=C(c1cnn(C(=O)N2CCC3(CCN(Cc4cccc(C(F)(F)F)c4)C3)C2)c1)N1CCOCC1 (stereo not shown) [Example 32, (4-(morpholine-4-carbonyl)-1H-pyrazol-1-yl)(7-(3-(trifluoromethyl)benzyl)-2,7-diazaspiro[4.4]nonan-2-yl)methanone]		
≥ 75%		≥ 75%				CN(Cc1ccc(C(F)(F)F)c(N2CCCC2)c1)[C@@H]1C[C@@H]2CN(C(=O)n3cc(C(N)=O)cn3)C[C@@H]2C1 [Example 221, 1-(cis-5-(methyl(3-(pyrrolidin-1-yl)-4-(trifluoromethyl)benzyl)amino)octahydrocyclopenta[c]pyrrole-2-carbonyl)-1H-pyrazole-4-carboxamide]		
≥ 75%		≥ 75%				CN(Cc1ccc(C(F)(F)F)cc1)[C@H]1C[C@@H]2CN(C(=O)n3cc(C(=O)N4CCN(C5CC5)CC4)cn3)C[C@@H]2C1 [Example 186, (4-cyclopropylpiperazin-1-yl)(1-(trans-5-(methyl(4-(trifluoromethyl)benzyl)amino)octahydrocyclopenta[c]pyrrole-2-carbonyl)-1H-pyrazol-4-yl)methanone]		
≥ 75%		≥ 75%		≤ 0.1 µM	0.1 to 1 µM	CN(Cc1ccc(Cl)cc1)[C@@H]1C[C@@H]2CN(C(=O)n3cc(Cl)cn3)C[C@@H]2C1 [Example 67, (4-chloro-1H-pyrazol-1-yl)(cis-5-((4-chlorobenzyl)(methyl)amino)hexahydrocyclopenta[c]pyrrol-2(1H)-yl)methanone]		
≥ 75%		≥ 75%				O=C(c1cnn(C(=O)N2CC3CN(Cc4ccc(N5CCOCC5)cc4C(F)(F)F)CC3C2)c1)N1CCCC1 (stereo not shown) [Example 12, (5-(4-morpholino-2-(trifluoromethyl)benzyl)hexahydropyrrolo[3,4-c]pyrrol-2(1H)-yl)(4-(pyrrolidine-1-carbonyl)-1H-pyrazol-1-yl)methanone]		
0 to 25%		≥ 75%				CN(Cc1ccccc1C(F)(F)F)[C@@H]1C[C@@H]2CN(C(=O)n3cc(C(=O)N4CCN(C5CC5)CC4)cn3)C[C@@H]2C1 [Example 94, (4-cyclopropylpiperazin-1-yl)(1-(cis-5-(methyl(2-(trifluoromethyl)benzyl)amino)octahydrocyclopenta[c]pyrrole-2-carbonyl)-1H-pyrazol-4-yl)methanone]		
≥ 75%		≥ 75%		≤ 0.1 µM	≤ 0.1 µM	CN(Cc1ccc(C(F)(F)F)cc1)[C@H]1C[C@@H]2CN(C(=O)n3cc(Cl)cn3)C[C@@H]2C1 [Example 78, (4-chloro-1H-pyrazol-1-yl)(trans-5-(methyl(4-(trifluoromethyl)benzyl)amino)hexahydrocyclopenta[c]pyrrol-2(1H)-yl)methanone]		
